Laboratory results taken from ChEMBL document CHEMBL1127005, “Design of novel agents for the therapy of non-insulin dependent diabetes mellitus (NIDDM)” (Bioorg Med Chem Lett, 1993).

species on record: Rattus norvegicus; test: Inhibition against gluconeogenesis was expressed as effect of compound on rat hepatocyte glucose production from 10 mM lactate/1 mM pyruvate/0.5 mM oleate; type: functional; settings: Rattus norvegicus, Hepatocyte

In order of falling IC50:
1. C=C1[C@@H](CCCCCCCCCCCC)[C@@H]1CC(=O)O  160 µM
2. C=C1C[C@@H]1CC(=O)O  60 µM
3. C=C1[C@H](CCCC)[C@H]1CC(N)=O  60 µM
4. C=C1[C@@H](CC(N)=O)[C@H]1CCCCCCCCCCCC  32 µM
5. C=C1C[C@@H]1CC(N)=O  30 µM
6. C=C1[C@H](CCCC)[C@H]1CC(=O)O  30 µM
7. C=C1[C@@H](CC(=O)O)[C@H]1CCCCCCCCCCCC  25 µM
8. C=C1[C@@H](CC(=O)O)[C@H]1CCCC  15 µM
9. C=C1[C@@H](CC(N)=O)[C@H]1CCCCCCCC  8 µM
10. C=C1[C@@H](CC(=O)O)[C@H]1CCCCCCCC  5 µM
11. C=C1[C@@H](CC(N)=O)[C@H]1CCCC  4 µM

same assay, conditions: hepatocyte

In order of rising IC50:
1. C=C1[C@H](CCCCCCCCCCCC)[C@H]1CC(=O)O (stereo in doubt)  13 µM
2. C=C1[C@H](CCCCCCCCCCCC)[C@H]1CC(=O)O (stereo in doubt; 4d)  200 µM
